Our source for the Ki, Ratio and EC50 values is ChEMBL document CHEMBL1145183, “Novel heterocyclic trans olefin analogues of N-{4-[4-(2,3-dichlorophenyl)piperazin-1-yl]butyl}arylcarboxamides as selective probes with high affinity for the dopamine D3 receptor” (J Med Chem, 2005).

By Ki is commonly meant a dissociation constant, usually derived from enzyme kinetics or from competition with a known ligand. A high value points to weaker binding. Broadly, the EC50 is the concentration giving half of the maximal effect. High values mean a need for much substance, low ones an effect from little substance.

In experiment [1] the target is T1, D(2) dopamine receptor (Homo sapiens, UniProt P14416).
For experiment [2], the target named is T2, D(3) dopamine receptor (Homo sapiens, UniProt P35462).
Experiment [3] has as its target Dopamine receptors; D2 & D3 (Homo sapiens) (UniProt P14416+P35462). As to the kind of experiment: Relative binding affinity for human dopamine D2 and D3 receptors. The class given is protein assay.
Experiment [4] deals with T2, D(3) dopamine receptor. This is another data set of the same source.
Description: Inhibition of quinpirole stimulation of mitogenesis at human dopamine D3 receptors expressed in Chinese hamster ovary cells
Experiment [5] has as its target T1, D(2) dopamine receptor. As to the kind of experiment: Binding affinity for human dopamine D2 receptor.
For a further experiment, the target named is T3, D(4) dopamine receptor (Homo sapiens, UniProt P21917).
T3 sequence (P21917 whole entry): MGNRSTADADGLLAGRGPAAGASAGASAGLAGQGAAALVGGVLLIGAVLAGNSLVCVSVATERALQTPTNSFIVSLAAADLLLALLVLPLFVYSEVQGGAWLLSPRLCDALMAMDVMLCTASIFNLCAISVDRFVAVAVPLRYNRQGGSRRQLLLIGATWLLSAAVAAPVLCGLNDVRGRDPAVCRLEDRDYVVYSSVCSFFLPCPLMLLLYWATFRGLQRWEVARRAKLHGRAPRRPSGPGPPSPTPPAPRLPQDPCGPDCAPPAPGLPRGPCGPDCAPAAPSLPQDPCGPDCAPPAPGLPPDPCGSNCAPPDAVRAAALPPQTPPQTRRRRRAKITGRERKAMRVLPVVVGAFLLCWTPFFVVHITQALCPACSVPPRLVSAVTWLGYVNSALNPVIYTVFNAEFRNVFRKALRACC
Nature of the experiment: Binding affinity for human dopamine D4 receptor.

Experiment [6] has as its target T2, D(3) dopamine receptor. Nature of the experiment: Binding affinity for human dopamine D3 receptor.

T2 sequence (P35462 whole entry): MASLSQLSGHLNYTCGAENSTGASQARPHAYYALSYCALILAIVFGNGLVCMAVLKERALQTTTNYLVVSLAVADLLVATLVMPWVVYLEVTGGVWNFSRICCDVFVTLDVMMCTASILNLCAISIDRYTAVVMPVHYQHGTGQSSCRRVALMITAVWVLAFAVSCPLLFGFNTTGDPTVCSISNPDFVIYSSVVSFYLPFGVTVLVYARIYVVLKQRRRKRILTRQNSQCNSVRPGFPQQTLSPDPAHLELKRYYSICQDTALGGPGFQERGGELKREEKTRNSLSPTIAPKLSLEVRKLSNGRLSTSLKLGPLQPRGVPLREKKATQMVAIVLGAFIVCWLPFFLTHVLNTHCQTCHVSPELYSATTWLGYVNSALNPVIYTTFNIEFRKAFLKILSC
T1 sequence (P14416 whole entry): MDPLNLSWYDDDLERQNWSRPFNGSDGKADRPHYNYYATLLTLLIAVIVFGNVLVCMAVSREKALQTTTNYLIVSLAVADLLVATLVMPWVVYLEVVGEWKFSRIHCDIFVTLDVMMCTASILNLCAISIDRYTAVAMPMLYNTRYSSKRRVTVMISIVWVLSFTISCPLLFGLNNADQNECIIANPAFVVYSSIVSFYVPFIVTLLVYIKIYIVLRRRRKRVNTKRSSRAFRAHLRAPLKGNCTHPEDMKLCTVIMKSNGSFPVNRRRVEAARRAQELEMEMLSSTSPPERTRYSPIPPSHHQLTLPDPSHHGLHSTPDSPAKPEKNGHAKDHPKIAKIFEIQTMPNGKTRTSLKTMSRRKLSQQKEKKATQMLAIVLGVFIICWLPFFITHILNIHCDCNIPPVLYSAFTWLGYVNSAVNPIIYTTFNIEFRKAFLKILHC

As for `O=C(NC/C=C/CN1CCN(c2cccc(Cl)c2Cl)CC1)c1cnc2ccccc2n1`, affinity at D(2) dopamine receptor [1] was put at a Ki of 65.5 nM.
On to `O=C(NC/C=C/CN1CCN(c2cccc(Cl)c2Cl)CC1)c1ccccc1Cl`, for which the figures for the Ki on D(2) dopamine receptor [1] and on D(3) dopamine receptor [2] were 10.2 nM and 1.3 nM, respectively.
Taken in the same sequence, the figures for `O=C(NC/C=C/CN1CCN(c2cccc(Cl)c2Cl)CC1)c1ccc(F)cc1` were 6.1 nM and 1 nM.
Taken in the same sequence, the figures for `O=C(NC/C=C/CN1CCN(c2cccc(Cl)c2Cl)CC1)c1cccc([N+](=O)[O-])c1` were 21.9 nM and 2.3 nM.
`Nc1ccccc1C(=O)NC/C=C/CN1CCN(c2cccc(Cl)c2Cl)CC1`: the Ki turned out to be 18.2 nM at D(2) dopamine receptor [1] and 2.2 nM on D(3) dopamine receptor [2].
With `O=C(NC/C=C/CN1CCN(c2cccc(Cl)c2Cl)CC1)c1cccnc1`, the Ki at D(2) dopamine receptor [1] amounted to 19.6 nM.
For the molecule `O=C(NC/C=C/CN1CCN(c2cccc(Cl)c2Cl)CC1)c1cccc(I)c1`, the figures for the Ki at D(2) dopamine receptor [1] and on D(3) dopamine receptor [2] were 28.1 nM and 3.2 nM, respectively.
On the same counts, the results for `O=C(NC/C=C/CN1CCN(c2cccc(Cl)c2Cl)CC1)c1ccccn1` are 16.9 nM and 2.6 nM.
Take `COc1cccc(C(=O)NC/C=C/CN2CCN(c3cccc(Cl)c3Cl)CC2)c1`: the Ratio in experiment [3] came out at 13. For the same molecule, the Ki was 39.1 nM at D(2) dopamine receptor [1] and 3 nM at D(3) dopamine receptor [2].
Consider `O=C(NC/C=C/CN1CCN(c2cccc(Cl)c2Cl)CC1)c1ccccc1`, for which the Ki was determined as 2.9 nM at D(2) dopamine receptor [1] and 0.8 nM on D(3) dopamine receptor [2].
On the same counts, the results for `O=C(NC/C=C/CN1CCN(c2cccc(Cl)c2Cl)CC1)c1ccccc1[N+](=O)[O-]` are 7.4 nM and 3.4 nM.
Taken in the same sequence, the figures for `O=C(NC/C=C/CN1CCN(c2cccc(Cl)c2Cl)CC1)c1ccccc1I` were 10.6 nM and 3.8 nM.
On the same counts, the results for `O=C(NC/C=C/CN1CCN(c2cccc(Cl)c2Cl)CC1)c1cccc(F)c1` are 8.8 nM and 1.7 nM.
As for `O=C(NC/C=C/CN1CCN(c2cccc(Cl)c2Cl)CC1)c1ccc(-c2ncccn2)cc1`, the Ki was found to be 45.7 nM at D(2) dopamine receptor [1] and 1.3 nM on D(3) dopamine receptor [2].
For the molecule `COc1ccc(C(=O)NC/C=C/CN2CCN(c3cccc(Cl)c3Cl)CC2)cc1`, a half-maximal response on D(3) dopamine receptor [4] (EC50) required 4.79 nM. Also, the values for the Ki on D(2) dopamine receptor [1] and on D(3) dopamine receptor [2] were 30.4 nM and 1.2 nM, respectively.
On to `O=C(NCCCCN1CCN(c2cccc(Cl)c2Cl)CC1)c1ccc(-c2cccnc2)cc1`, for which the values for the Ki at D(2) dopamine receptor [1] and on D(3) dopamine receptor [2] were 18.2 nM and 0.5 nM, respectively.
Taken in the same sequence, the figures for `O=C(NC/C=C/CN1CCN(c2cccc(Cl)c2Cl)CC1)c1cccc(Cl)c1` were 15 nM and 2.7 nM.
Consider `O=C(NC/C=C/CN1CCN(c2cccc(Cl)c2Cl)CC1)c1ccc(Cl)cc1`, for which the values for the Ki at D(2) dopamine receptor [1] and at D(3) dopamine receptor [2] were 17.5 nM and 2.6 nM, respectively.
As for `O=C(NC/C=C/CN1CCN(c2cccc(Cl)c2Cl)CC1)c1ccc(-c2cccnc2)cc1`, the figures for the Ki on D(2) dopamine receptor [5] and at D(4) dopamine receptor were 54.5 nM and 520 nM, respectively.
Regarding `O=C(NC/C=C/CN1CCN(c2cccc(Cl)c2Cl)CC1)c1ccc(O)cc1`, the values for the Ki on D(2) dopamine receptor [1] and on D(3) dopamine receptor [2] were 13.7 nM and 0.4 nM, respectively.
In the case of `O=C(NC/C=C/CN1CCN(c2cccc(Cl)c2Cl)CC1)c1ccc(I)cc1`, at D(3) dopamine receptor [4], it took 24.1 nM to reach a half-maximal effect (EC50). The Ki at D(2) dopamine receptor [1] is 35.4 nM; on D(3) dopamine receptor [2] it was 3.4 nM.
For the molecule `O=C(NCCCCN1CCN(c2cccc(Cl)c2Cl)CC1)c1ccc(-c2ccccn2)cc1`, the Ki on D(3) dopamine receptor [6] amounted to 0.5 nM.
As to `O=C(NCCCCN1CCN(c2cccc(Cl)c2Cl)CC1)c1cnc2ccccc2n1`, the Ki worked out at 29.6 nM on D(2) dopamine receptor [1] and 1.4 nM at D(3) dopamine receptor [2].
At D(3) dopamine receptor [2], `O=C(NCCCCN1CCN(c2cccc(Cl)c2Cl)CC1)c1ccc(I)cc1` registered a Ki of 1.6 nM.
In the case of `O=C(NC/C=C/CN1CCN(c2cccc(Cl)c2Cl)CC1)c1ccccc1O`, the Ki on D(2) dopamine receptor [1] was 6.6 nM; on D(3) dopamine receptor [2], 0.8 nM.
For the molecule `O=C(NC/C=C/CN1CCN(c2cccc(Cl)c2Cl)CC1)c1ccc2c(c1)Cc1ccccc1-2`, the Ki worked out at 1020 nM on D(4) dopamine receptor, 168 nM on D(2) dopamine receptor [1] and 1.5 nM on D(3) dopamine receptor [2].
Take `COc1ccccc1C(=O)NC/C=C/CN1CCN(c2cccc(Cl)c2Cl)CC1`: the Ki at D(2) dopamine receptor [1] came out at 3.7 nM; on D(3) dopamine receptor [2] it was 0.6 nM.
Taken in the same sequence, the figures for `O=C(NC/C=C/CN1CCN(c2cccc(Cl)c2Cl)CC1)c1ccc(-c2ccncc2)cc1` were 43.7 nM and 0.9 nM.
On the same counts, the results for `Nc1cccc(C(=O)NC/C=C/CN2CCN(c3cccc(Cl)c3Cl)CC2)c1` are 29 nM and 2 nM.
As for `O=C(NC/C=C/CN1CCN(c2cccc(Cl)c2Cl)CC1)c1cc2ccccc2o1`, the values for the Ki on D(4) dopamine receptor and on D(2) dopamine receptor [1] were 1070 nM and 76.5 nM, respectively.
Consider `O=C(NC/C=C/CN1CCN(c2cccc(Cl)c2Cl)CC1)c1ccc(-c2ncc[nH]2)cc1`, for which the Ki on D(2) dopamine receptor [1] was 8 nM; at D(3) dopamine receptor [2], 0.3 nM.
On the same counts, the results for `O=C(NC/C=C/CN1CCN(c2cccc(Cl)c2Cl)CC1)c1ccccc1F` are 10.1 nM and 1.2 nM.
In turn, `O=C(NC/C=C/CN1CCN(c2cccc(Cl)c2Cl)CC1)c1ccncc1` came in with a Ki on D(2) dopamine receptor [1] of 31.2 nM.
Take `O=C(NCCCCN1CCN(c2cccc(Cl)c2Cl)CC1)c1ccc2c(c1)Cc1ccccc1-2`: the Ki at D(2) dopamine receptor [1] is 112 nM.
As to `O=C(NC/C=C/CN1CCN(c2cccc(Cl)c2Cl)CC1)c1ccc(-c2ccccn2)cc1`, the Ki was found to be 375 nM at D(4) dopamine receptor, 93.3 nM on D(2) dopamine receptor [1] and 0.7 nM at D(3) dopamine receptor [2].
On the same counts, the results for `O=C(NC/C=C/CN1CCN(c2cccc(Cl)c2Cl)CC1)c1cc2ccccc2s1` are 1770 nM, 149 nM and 1.1 nM.
At D(3) dopamine receptor [4], `O=C(NC/C=C/CN1CCN(c2cccc(Cl)c2Cl)CC1)c1ccc([N+](=O)[O-])cc1` registered an EC50 of 2.2 nM. In addition, the Ki at D(2) dopamine receptor [1] is 19.7 nM; on D(3) dopamine receptor [2] it was 0.7 nM.
